Assay results as given in US11912789B2, “Peptide activating agent” (Interk Peptide Therapeutics Limited, priority 2018, dated 2024).

Test system: PBMCs
Assay: Foxp3+ Treg proportion in anti-CD3 stimulated PBMCs
Type: cell-based, human
Conditions: in the absence of RSKAKNPLYR-(2Adod)4-NH2; FIG. 9
Description: Shown is the percentage inhibition of Regulatory T cells (Tregs:Foxp3+) within human PBMCs in the presence of RSKAKNPLYR-(2Adod)4-NH2 (cells gated for CD4+/CD25+/CD127101. Anti-CD3 stimulated PBMCs were cultured together with RSKAKNPLYR-(2Adod)4-NH2 over a 5-concentration range plus vehicle control (0-1.25 μM) for 48 hrs. Treg populations were determined by measuring Foxp3+ proportion of cells within CD4+CD25+CD127^low population. Data were normalised due to donor variation. Data presented indicates the fold change in Foxp3+ Treg proportions in response to peptide treatment, +/−SEM, n=4. Data were analysed by RM two-way ANOVA with Dunnett's post-test comparing each peptide concentration with […], **p<0.01, ****p<0.0001. Dotted line indicates vehicle control for normalisation.
Anti-CD3 stimulated PBMCs were cultured together with RSKAKNPLYR-(2Adod)4-NH2, over a 5-concentration range plus vehicle control (0-1.25 μM) in combination with anti-PD-1 (Pembrolizumab) or isotype (hlgG4) for 48 hrs after which CD4+ and CD8+ T cells were assessed by flow cytometry. Treg populations were determined by measuring Foxp3+ proportion of cells within CD4+CD25+CD127^low populations. […] Data were analysed by RM two-way ANOVA with Sidak's post-test comparing peptide in combination with anti-PD-1 vs combination with hlgG4 at each dose, *p<0.05, **p<0.01. […]

Pembrolizumab [anti-PD-1 antibodies] was tested, and the “proportion of Treg cells within PBMCs, anti-PD-1 versus isotype control” value was “same proportion of Treg cells”.
